This is an account of results in PubChem BioAssay (NCI).

Structures are written as SMILES. Values joined by “and” are separate entries in the source; they are usually repeats but may differ in a detail not shown here. Equal entries are not always repeated.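 Growth conditions: 96-well plates. Treatment: test compound, 48 hours, 5 concentrations. Analysis: linear interpolation between bracketing concentrations; unreached endpoints set to highest concentration. GI50 marks 50% less growth. TGI: concentration producing complete growth inhibition.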

For the experiment, the system named is MDA-MB-468 breast. Kind of experiment: NCI tumour cell line growth inhibition, 48 h.
Take `CN1CCN(c2ccc(Nc3nc(N)c(C(=O)c4ccc5c(c4)OCCO5)s3)cc2)CC1`: the GI50 is 5.56 µM and the TGI is > 17.6 µM.

Regarding `Cc1cc(O)c(C2=NN(c3ccc(S(N)(=O)=O)cc3)C(c3ccc(N(C)C)cc3)C2)c(C)c1Cl` (stereo unspecified), the GI50 was 17.1 µM and the TGI was found to be 33.8 µM. On to `Nc1ncnc2c1c(-c1cccc(OCc3ccccc3)c1)cn2C1CC(CN2CCC2)C1` (stereo unspecified), for which the GI50 is 1.96 µM and 2.14 µM; the TGI was 5.98 µM and 8.79 µM. On to `Cc1cccc(/C=C/C(=O)Nc2ncc(Cc3cccc(C)c3)s2)c1`, for which the GI50 was 3.77 µM and the TGI is > 100 µM. For `Cc1cc(Nc2c3ccccc3nc3ccccc23)ccc1NS(C)(=O)=O`, the GI50 was 2.29 µM and the TGI stood at 8.81 µM.

In the case of `Oc1cccc2ccc(-c3nnc(SCc4ccc(O)c5ncccc45)n3-c3ccccc3)nc12`, the GI50 was 0.813 µM and the TGI came out at 9.52 µM.

On to `O=C(NCCCNc1cc(-c2cn(-c3ccccc3)nc2-c2cccc(O)c2)ccn1)Nc1ccc(F)cc1`, for which the GI50 was 1.18 µM and the TGI came to 4.66 µM.

For `Fc1ccc(-c2ncn(C3CCNCC3)c2-c2ccnc(Oc3ccc(F)c(F)c3)n2)cc1`, the GI50 was 2.34 µM and the TGI stood at 5.86 µM.

As for `CN1C(=O)[C@@H](NC(=O)[C@H](CCC(F)(F)F)[C@H](CCC(F)(F)F)C(N)=O)N=C(c2ccccc2)c2ccccc21`, the GI50 is 21.2 µM and the TGI was > 100 µM. For `CC(C)CC(=O)Nc1n[nH]c2c1CN(C(=O)C1CCN(C)CC1)C2(C)C`, in that order: 1.13 µM and 5.18 µM. Regarding `CC(=O)N1c2ccccc2NC2=C(C(=O)N(Cc3ccccc3)C2(C)C)C1c1ccco1` (stereo unspecified), the GI50 was 0.0897 µM and the TGI was > 25 µM. In the case of `COc1cc(Nc2ncc(F)c(Nc3ccc4c(n3)NC(=O)C(C)(C)O4)n2)cc(OC)c1OC`, the GI50 was 8.5 µM and 4.91 µM; the TGI is > 100 µM. Regarding `COC(=O)Nc1nc2ccc(C(=O)c3ccc(N(C)C4COC4)cc3)cc2[nH]1`, the GI50 is 0.224 µM and the TGI is > 100 µM.

With `CN1CCN(c2cc(C(=O)Nc3cc4cc(-c5cnn(C)c5)ccc4cn3)ccn2)CC1`, the GI50 was 0.0348 µM and the TGI turned out to be 0.286 µM. For `O=[N+]([O-])c1ccccc1NC1c2ccccc2Oc2ccccc21`, in that order: 2.21 µM and 5.4 µM. Take `Cc1nccc2c3ccc(OCc4cn(-c5ccc(Cl)cc5)nn4)cc3n(CCCc3ccccc3)c12`: the GI50 is 6.07 µM and the TGI turned out to be 19.1 µM. For `N#CC(C#N)N=Nc1ccc(Br)cc1`, in that order: 1.01 µM and 5.1 µM. For `CCCc1cc2cc(-n3nc(CC)c4c3CC(C)(C)CC4=O)cc(NC3CCC(O)CC3)c2c(=O)[nH]1` (stereo unspecified), in that order: 0.212 µM and > 100 µM.

Regarding `Nc1ccccc1NC(=O)c1ccc(CCCC(=O)Nc2ccc(C3CC3N)cc2)cc1` (stereo unspecified), the GI50 is 1.62 µM and the TGI came to 4.53 µM.

On to `COc1cc(OC)c(/C=C/S(=O)(=O)Cc2ccc(OC)c(NC(=O)CCC(=O)NO)c2)c(OC)c1`, for which the GI50 was 0.0549 µM and the TGI is > 100 µM. For `CS(=O)(=O)Nc1cccc(-c2cc(-c3ccccc3Cl)c(C#N)c(N)n2)c1`, in that order: 1.19 µM and 7.75 µM. For `C[C@@H]1Cc2c([nH]c3ccccc23)[C@@H](c2c(F)cc(NC3CN(CCCF)C3)cc2F)N1CC(F)(F)CO`, in that order: 1.95 µM and 4.86 µM.

With `N#CSc1c[nH]c2ccc(/C=C/C(=O)/C=C(/C=C/c3ccc4[nH]cc(SC#N)c4c3)OB(F)F)cc12`, the GI50 is 0.91 µM and the TGI was found to be 4.09 µM. For `O=C(O)CCC/C=C\C[C@H]1C=CC(=O)/C1=C/C[C@@H](O)CCc1cccc(C(F)(F)F)c1`, in that order: 1.24 µM and 3.27 µM. Consider `CCn1cc(-c2ccnc3[nH]ccc23)c(-c2cccc(NC(=O)Nc3ccc(OCc4ccccc4)cc3)c2)n1`, for which the GI50 is 18.2 µM and the TGI was > 25 µM. For `Cc1cc2cn3c4ccc(O)cc4[nH]c(=O)c3c2cc1C`, in that order: 0.178 µM and 0.772 µM.

With `CCCCCCCCCc1cc[n+](CC(=O)c2ccc([N+](=O)[O-])cc2)cc1`, the GI50 is 0.446 µM and the TGI was found to be 1.75 µM. For `COC1=CC(=O)C(OC)=C(OC)C1=O`, in that order: 1.61 µM and 3.16 µM. For `CCC(=C(c1ccc(OCCN(C)C)cc1)c1ccc(OCCN(C)C)cc1)c1ccc(Cl)cc1`, in that order: 2.95 µM and 6.7 µM. As for `CCCCCCCCCCCCCCCC[N+](C)(CCO)Cc1cnc[nH]1` (stereo unspecified), the GI50 is 0.396 µM and the TGI was found to be 10.1 µM. For `CCN(CC)c1ccc2c(c1)Oc1nc(N)c(C#N)c(N)c1C2Sc1ccc(OC)cc1` (stereo unspecified), in that order: 1.85 µM and 3.51 µM. With `CN(C)C/C=C/C(=O)Nc1cc2c(Nc3ccc(F)c(Cl)c3F)ncnc2cc1OCCOC(F)F`, the GI50 is < 0.01 µM. Consider `CS(=O)(=O)CCNCc1ccc(-c2ccc3ncnc(Nc4ccc(OCc5cccc(F)c5)c(C(F)(F)F)c4)c3c2)o1`, for which the GI50 was 1.42 µM and the TGI was 6.09 µM. For `CN(C)c1ncc(-c2ccc(C(F)(F)F)cc2)c(NC2CCCCCC2)n1`, in that order: 14.3 µM and 37.1 µM.

Turning to `O=c1c(O)cccc2cc(O)c(O)c(O)c12`, the GI50 was 47.6 µM and the TGI is > 100 µM. As to `O=C(/C=C/C=C/c1c(C2CC2)nc2ccccc2c1-c1ccc(F)cc1)c1cccs1`, the GI50 is 2.75 µM and the TGI was > 100 µM.
